Molecular target: T1, full-length human PKCι (Homo sapiens, UniProt P41743)
T1 construct: Recombinant, full-length human PKCι expressed in Sf21 insect cells is also commercially available; purchased; host or cells: Sf21 insect cells
T1 sequence (P41743 1-596): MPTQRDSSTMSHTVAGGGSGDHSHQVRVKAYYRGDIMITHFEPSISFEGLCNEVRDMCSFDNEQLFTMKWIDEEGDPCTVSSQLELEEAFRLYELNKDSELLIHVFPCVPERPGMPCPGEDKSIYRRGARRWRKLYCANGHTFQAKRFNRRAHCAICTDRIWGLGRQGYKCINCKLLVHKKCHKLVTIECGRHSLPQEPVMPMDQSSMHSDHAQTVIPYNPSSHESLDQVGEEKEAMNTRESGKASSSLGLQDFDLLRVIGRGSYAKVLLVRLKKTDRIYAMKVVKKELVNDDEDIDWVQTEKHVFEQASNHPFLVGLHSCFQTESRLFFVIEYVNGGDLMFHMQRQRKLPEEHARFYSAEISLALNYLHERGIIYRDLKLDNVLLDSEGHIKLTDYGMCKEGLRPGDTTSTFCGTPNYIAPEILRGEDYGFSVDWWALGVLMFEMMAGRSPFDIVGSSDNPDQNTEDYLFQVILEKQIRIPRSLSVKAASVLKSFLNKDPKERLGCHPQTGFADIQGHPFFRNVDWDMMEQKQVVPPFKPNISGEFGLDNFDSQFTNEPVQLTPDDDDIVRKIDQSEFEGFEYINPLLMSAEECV
Assay: PKCι IC50 IMAP fluorescence polarisation assay, full-length enzyme
Type: biochemical
Conditions: full length PKCi at 15 μM ATP; read-out: IC50 in IMAP assay against full length PKCi

IC50 [nM]	Compound
1000 to 10000	c1cc(-c2nc(N[C@@H]3CCNC3)c3sccc3n2)cc(NC2CC2)n1 [compound 594, [2-(2-Cyclopropylamino-pyridin-4-yl)-thieno[3,2-d]pyrimidin-4-yl]-(R)-pyrrolidin-3-yl-amine]
100 to 1000	O=C(Nc1cc(-c2nc(N[C@@H]3CCNC3)c3sccc3n2)ccn1)c1cccs1 [compound 595, Thiophene-2-carboxylic acid {4-[4-((R)-pyrrolidin-3-ylamino)-thieno[3,2-d]pyrimidin-2-yl]-pyridin-2-yl}-amide]
100 to 1000	COc1cccc(C(=O)Nc2cc(-c3nc(N[C@@H]4CCNC4)c4sccc4n3)ccn2)c1 [compound 596, 3-Methoxy-N-{4-[4-((R)-pyrrolidin-3-ylamino)-thieno[3,2-d]pyrimidin-2-yl]-pyridin-2-yl}-benzamide]
1000 to 10000	c1cc(-c2nc(N[C@@H]3CCNC3)c3sccc3n2)cc(NCC2CC2)n1 [compound 597, {2-[2-(Cyclopropylmethyl-amino)-pyridin-4-yl]-thieno[3,2-d]pyrimidin-4-yl}-(R)-pyrrolidin-3-yl-amine]
1000 to 10000	c1ccc(CNc2cc(-c3nc(N[C@@H]4CCNC4)c4sccc4n3)ccn2)cc1 [compound 598, [2-(2-Benzylamino-pyridin-4-yl)-thieno[3,2-d]pyrimidin-4-yl]-(R)-pyrrolidin-3-yl-amine]
100 to 1000	O=C(Nc1cc(-c2nc(N[C@@H]3CCNC3)c3sccc3n2)ccn1)C1CC1 [compound 599, Cyclopropanecarboxylic acid {4-[4-((R)-pyrrolidin-3-ylamino)-thieno[3,2-d]pyrimidin-2-yl]-pyridin-2-yl}-amide]
1000 to 10000	c1ccc(Nc2cc(-c3nc(N[C@@H]4CCNC4)c4sccc4n3)ccn2)nc1 [compound 600, {2-[2-(Pyridin-2-ylamino)-pyridin-4-yl]-thieno[3,2-d]pyrimidin-4-yl}-(R)-pyrrolidin-3-yl-amine]
100 to 1000	c1ccc(-c2ccc(Nc3cc(-c4nc(N[C@@H]5CCNC5)c5sccc5n4)ccn3)nc2)cc1 [compound 601, {2-[2-(5-Phenyl-pyridin-2-ylamino)-pyridin-4-yl]-thieno[3,2-d]pyrimidin-4-yl}-(R)-pyrrolidin-3-yl-amine]
100 to 1000	c1cc(-c2nc(N[C@@H]3CCNC3)c3sccc3n2)cc(Nc2ccc(N3CCOCC3)cn2)n1 [compound 602, {2-[2-(5-Morpholin-4-yl-pyridin-2-ylamino)-pyridin-4-yl]-thieno[3,2-d]pyrimidin-4-yl}-(R)-pyrrolidin-3-yl-amine]
100 to 1000	CN1CCN(c2ccc(Nc3cc(-c4nc(N[C@@H]5CCNC5)c5sccc5n4)ccn3)nc2)CC1 [compound 603, (2-{2-[5-(4-Methyl-piperazin-1-yl)-pyridin-2-ylamino]-pyridin-4-yl}-thieno[3,2-d]pyrimidin-4-yl)-(R)-pyrrolidin-3-yl-amine]
100 to 1000	N#Cc1ccc(Nc2cc(-c3nc(N[C@@H]4CCNC4)c4sccc4n3)ccn2)nc1 [compound 604, 6-{4-[4-((R)-Pyrrolidin-3-ylamino)-thieno[3,2-d]pyrimidin-2-yl]-pyridin-2-ylamino}-nicotinonitrile]
100 to 1000	CN1CCN(c2cccc(Nc3cc(-c4nc(N[C@@H]5CCNC5)c5sccc5n4)ccn3)c2)CC1 [compound 605, (2-{2-[3-(4-Methyl-piperazin-1-yl)-phenylamino]-pyridin-4-yl}-thieno[3,2-d]pyrimidin-4-yl)-(R)-pyrrolidin-3-yl-amine]
1000 to 10000	N#Cc1cccc(Nc2cc(-c3nc(N[C@@H]4CCNC4)c4sccc4n3)ccn2)c1 [compound 606, 3-{4-[4-((R)-Pyrrolidin-3-ylamino)-thieno[3,2-d]pyrimidin-2-yl]-pyridin-2-ylamino}-benzonitrile]
1000 to 10000	N#Cc1ccc(Nc2cc(-c3nc(N[C@@H]4CCNC4)c4sccc4n3)ccn2)cc1 [compound 607, 4-{4-[4-((R)-Pyrrolidin-3-ylamino)-thieno[3,2-d]pyrimidin-2-yl]-pyridin-2-ylamino}-benzonitrile]
100 to 1000	c1cc(-c2nc(N[C@@H]3CCNC3)c3sccc3n2)cc(Nc2ccc(N3CCCCC3)cc2)n1 [compound 608, {2-[2-(4-Piperidin-1-yl-phenylamino)-pyridin-4-yl]-thieno[3,2-d]pyrimidin-4-yl}-(R)-pyrrolidin-3-yl-amine]
1000 to 10000	CN(C)S(=O)(=O)c1ccc(Nc2cc(-c3nc(N[C@@H]4CCNC4)c4sccc4n3)ccn2)cc1 [compound 610, N,N-Dimethyl-4-{4-[4-((R)-pyrrolidin-3-ylamino)-thieno[3,2-d]pyrimidin-2-yl]-pyridin-2-ylamino}-benzenesulfonamide]
1000 to 10000	c1cc(-c2nc(N[C@@H]3CCNC3)c3sccc3n2)cc(Nc2ccc(CN3CCCC3)cc2)n1 [compound 611, (R)-Pyrrolidin-3-yl-{2-[2-(4-pyrrolidin-1-ylmethyl-phenylamino)-pyridin-4-yl]-thieno[3,2-]pyrimidin-4-yl}-amine]
100 to 1000	CN1CCN(C(=O)c2ccc(Nc3cc(-c4nc(N[C@@H]5CCNC5)c5sccc5n4)ccn3)cc2)CC1 [compound 613, (4-Methyl-piperazin-1-yl)-(4-{4-[4-((R)-pyrrolidin-3-ylamino)-thieno[3,2-d]pyrimidin-2-yl]-pyridin-2-ylamino}-phenyl)-methanone]
100 to 1000	c1cn(Cc2ccc(Nc3cc(-c4nc(N[C@@H]5CCNC5)c5sccc5n4)ccn3)cc2)cn1 [compound 614, {2-[2-(4-Imidazol-1-ylmethyl-phenylamino)-pyridin-4-yl]-thieno[3,2-d]pyrimidin-4-yl}-(R)-pyrrolidin-3-yl-amine]
1000 to 10000	O=C(Nc1cc(-c2nc(N[C@@H]3CCNC3)c3sccc3n2)ccn1)c1cnccn1 [compound 615, Pyrazine-2-carboxylic acid {4-[4-((R)-pyrrolidin-3-ylamino)-thieno[3,2-d]pyrimidin-2-yl]-pyridin-2-yl}-amide]
100 to 1000	c1csc(-c2ccc(Nc3cc(-c4nc(N[C@@H]5CCNC5)c5sccc5n4)ccn3)cc2)c1 [compound 616, (R)-Pyrrolidin-3-yl-{2-[2-(4-thiophen-2-yl-phenylamino)-pyridin-4-yl]-thieno[3,2-d]pyrimidin-4-yl}-amine]
100 to 1000	c1cc(-c2nc(N[C@@H]3CCNC3)c3sccc3n2)cc(Nc2ccc(-c3ccsc3)cc2)n1 [compound 617, (R)-Pyrrolidin-3-yl-{2-[2-(4-thiophen-3-yl-phenylamino)-pyridin-4-yl]-thieno[3,2-d]pyrimidin-4-yl}-amine]
100 to 1000	O=C(Nc1cc(-c2nc(N[C@@H]3CCNC3)c3sccc3n2)ccn1)c1ccc(F)cc1 [compound 618, 4-Fluoro-N-{4-[4-((R)-pyrrolidin-3-ylamino)-thieno[3,2-d]pyrimidin-2-yl]-pyridin-2-yl}-benzamide]
10000 to 40000	Fc1c(-c2nc(N[C@@H]3CCNC3)c3sccc3n2)ccnc1Nc1ccccc1 [compound 619, [2-(3-Fluoro-2-phenylamino-pyridin-4-yl)-thieno[3,2-d]pyrimidin-4-yl]-(R)-pyrrolidin-3-yl-amine]
100 to 1000	CN1CCN(c2ccc(C(=O)Nc3cc(-c4nc(N[C@@H]5CCNC5)c5sccc5n4)ccn3)cc2)CC1 [compound 620, 4-(4-Methyl-piperazin-1-yl)-N-{4-[4-((R)-pyrrolidin-3-ylamino)-thieno[3,2-d]pyrimidin-2-yl]-pyridin-2-yl}-benzamide]

— US10183950B2, “Thienopyrimidine inhibitors of atypical protein kinase C” (Cancer Research Technology Limited, priority 2011, dated 2019)
